Laboratory results published in US20130203718A1 (priority 2010, published 2013).
“Also recorded” adds a separate entry of the source.

Tests used:
[1] = target: T1, hPRB (Homo sapiens, UniProt P06401); experiment: PR transactivation assay (GRE2-Luc) in HEK293T cells transiently expressing hPRB; assay type: cell-based; parameters: expressed in transfected cells; host or cells: HEK 293T
T1 sequence (P06401 1-933): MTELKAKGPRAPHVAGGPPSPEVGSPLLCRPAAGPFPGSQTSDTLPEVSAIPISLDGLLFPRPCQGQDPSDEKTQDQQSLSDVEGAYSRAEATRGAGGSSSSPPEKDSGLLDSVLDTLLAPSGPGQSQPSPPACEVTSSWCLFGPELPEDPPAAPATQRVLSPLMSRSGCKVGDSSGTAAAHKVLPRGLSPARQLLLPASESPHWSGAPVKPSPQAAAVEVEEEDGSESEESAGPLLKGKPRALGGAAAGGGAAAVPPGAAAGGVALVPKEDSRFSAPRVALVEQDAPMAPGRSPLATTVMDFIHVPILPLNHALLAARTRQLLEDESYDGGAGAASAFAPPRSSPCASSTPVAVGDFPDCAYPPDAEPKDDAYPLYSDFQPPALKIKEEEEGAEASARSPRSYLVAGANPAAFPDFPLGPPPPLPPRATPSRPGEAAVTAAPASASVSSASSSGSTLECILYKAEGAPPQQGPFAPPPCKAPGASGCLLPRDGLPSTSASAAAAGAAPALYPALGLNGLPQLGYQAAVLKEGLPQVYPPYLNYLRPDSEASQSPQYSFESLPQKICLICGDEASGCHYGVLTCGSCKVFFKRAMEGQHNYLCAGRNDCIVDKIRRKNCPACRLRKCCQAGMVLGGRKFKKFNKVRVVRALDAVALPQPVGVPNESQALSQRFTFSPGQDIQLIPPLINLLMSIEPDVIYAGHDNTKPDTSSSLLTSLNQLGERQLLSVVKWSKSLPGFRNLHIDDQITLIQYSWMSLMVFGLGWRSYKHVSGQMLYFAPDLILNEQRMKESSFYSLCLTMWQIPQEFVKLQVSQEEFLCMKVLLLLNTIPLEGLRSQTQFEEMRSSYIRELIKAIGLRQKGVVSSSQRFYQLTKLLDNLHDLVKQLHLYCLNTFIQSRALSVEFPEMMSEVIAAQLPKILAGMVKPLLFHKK
Procedure: PR Transactivation Assays in HEK 293T.
HEK 293T cells were routinely cultured in a high-glucose DMEM medium (Invitrogene, Cergy Pontoise, France), 20 mM HEPES, 2 mM glutamine, 1× non essential amino acids, 100 U/mL penicillin and 100 μg/mL streptomycin supplemented with 10% foetal calf serum (FCS) in a humidified atmosphere at 37° C. and with 5% CO2. One day before transfection, the cells were seeded at 3×10^6 cells/[…] diameter culture Petri dish and cultured overnight in the same medium. Six hours before transfection, the FCS supplemented medium was replaced by the same medium supplemented with 10% dextran-charcoal treated FCS. Transfections were carried out using the calcium phosphate precipitation method. The calcium phosphate precipitate was prepared with 0.5 μg pchPRB (Petit-Topin, et al Mol Pharmacol, 2009, 75, 1317), 7 μg reporter vector (GRE2-Luc from A. Biola-Vidamment and M. Pallardy) and 1 μg of pcβgal for an internal transfection control, in 1 mL 140 mM NaCl, 0.75 mM Na2HPO4, 25 mM HEPES, 125 mM CaCl2 pH 7.05 and added to the cells 30 minutes later. After 16 h incubation, the transfected cells were washed with PBS containing 2.5 mM EDTA, trypsinized and pooled. The transfected cells were replated in 24-well plates (100.000 transfected cells/well). […] Cells were lysed in 300 μl PBS 1×, 25 mM glycylglycine, 4 mM EDTA, 15% glycerol, 1% triton X-100, 15 mM MgSO4, pH 7.8 supplemented with 2 mM β-mercaptoethanol. The luciferase activities were quantified by using a Mithras LB940 reader microplates (Berthold).
The APRn “agonist efficacy” was determined from the following formula:
Agonist efficacy=[luciferase activity]1/[luciferase activity]2×100
The APRn “antagonist efficacy” was calculated from the following formula:
Antagonist efficacy=100−[luciferase activity]1/[luciferase activity]2×100
The results are the mean±SEM of three to five independent experiments.
All the synthesized APRn were classified in 4 series depending on the nature of their C3 substituent (R1/R′1 groups). The first one (series 1) includes APRn with no C3 substituent (R1═R′1═H) whereas series 2, 3 and 4 are related to APRn bearing a methoxyl (R1═OMe), a hydroxyl (R1═OH) and a fluorine atom (R1═F), respectively. The agonist/antagonist activities of APRn were determined either in human HEK293T cells transiently expressing hPRB or in human MDA-MB-231 iPRAB cells conditionally expressing hPRB, by using a luciferase reporter gene placed under the control of a glucocorticoid response element (GRE2-Luc). The APRn “agonist efficacy” was determined from the luciferase activity measured in the presence of APRn (1 μM). […] The “agonist efficacy” and “antagonist efficacy” are expressed as defined in the biological protocols section.

[2] = series 2-4, stated for both HEK293T and MDA-MB-231 iPRAB cells, APRn 1 μM, FIGS. 3-8
[3] = series 1 (no C3 substituent), HEK293T, APRn 1 μM, FIG. 1

CC1CCC2C3CCC4=CC(=O)CC[C@]4(C)C3CC[C@]2(C)[C@H]1F (stereo partly drawn)
melting point: 170 to 171 °C

CO[C@H]1CC[C@@]2(C)C(=CC[C@H]3[C@@H]4CC[C@H](C(C)O)[C@@]4(C)CC[C@@H]32)C1 (mixture of isomers) [APR-27, 3β-Methoxypregn-5-en-20-ol]
hPRB agonist/antagonist character (in words) [1, 2]: antagonist character without any agonist activity | melting point: 124 to 125 °C

CO[C@H]1CC[C@@]2(C)[C@@H](CC[C@@H]3[C@@H]2CC[C@]2(C)[C@@H](C(C)O)CC[C@@H]32)C1 (mixture of isomers) [APR-28, 3β-Methoxy-5α-pregnan-20-ol]
hPRB agonist/antagonist character (in words) [1, 2]: antagonist character without any agonist activity

CC(O)[C@H]1CC[C@H]2[C@@H]3CC[C@H]4C[C@@H](O)CC[C@]4(C)[C@H]3CC[C@]12C (mixture of isomers) [APR-29, 5α-Pregnan-3β,20-diol]
hPRB agonist/antagonist character (in words) [1, 2]: able to activate hPRB, but their agonist efficacies are low

CC1CCC2C3CCC4=CC(O)CC[C@]4(C)C3CC[C@]2(C)[C@H]1F (single isomer, unassigned) [APR-07, 17aβ-Fluoro-17α-methyl-D-homo-pregn-4-en-3-ol]
hPRB agonist/antagonist character (in words) [1, 2]: most potent hPRB antagonist in this series | melting point: 125 to 126 °C

CC(=O)[C@H]1CC[C@H]2[C@@H]3CC[C@H]4CCCC[C@]4(C)[C@H]3CC[C@]12C [APR-01, 5α-pregnan-20-one]
antagonist efficacy ([1]; HEK293T, APRn 1 μM plus progesterone 1 nM, FIG. 1): 48% | efficacy to activate hPRB (agonist efficacy) ([1]; HEK293T, APRn 1 μM, relative to 1 nM progesterone, FIG. 1): 30% | hPRB agonist/antagonist character (in words) [1, 3]: partial hPRB agonist

CO[C@H]1CC[C@@]2(C)C(=CC[C@H]3[C@@H]4CC[C@H](C(C)=O)[C@@]4(C)CC[C@@H]32)C1 [APR-02, 3β-Methoxypregn-5-en-20-one]
hPRB agonist/antagonist character (in words) [1, 2]: most potent molecules | hPRB agonist/antagonist character (in words) ([1]; series 2-4, stated for both HEK293T and MDA-MB-231 iPRAB cells, APRn 1 μM, FIGS. 3-8, listed as APR2): antagonist character without any agonist activity

CC1CCC2C3CC=C4CC5(CC[C@]4(C)C3CC[C@]2(C)[C@H]1F)OCCO5 (stereo partly drawn) [APR-05, 17aβ-Fluoro-17α-methyl-D-homo-3-ethylenedioxo-5-androstene]
melting point: 146 to 147 °C

CC1CCC2C3CC=C4C=CCC[C@]4(C)C3CC[C@]2(C)[C@H]1F (stereo partly drawn) [APR-08, 17aβ-Fluoro-17α-methyl-D-homo-pregn-3,5-diene]
hPRB agonist/antagonist character (in words) [1, 3]: partial antagonist | hPRB agonist/antagonist character (in words) ([1]; series 1 (no C3 substituent), HEK293T, APRn 1 μM, FIG. 1, listed as APR-8): full antagonists

C[C@H](O)[C@H]1CCC2C3CCC4CCCC[C@]4(C)C3CC[C@@]21C (stereo partly drawn) [APR-10, 20-Hydroxypregnane]
hPRB agonist/antagonist character (in words) [1, 3]: full antagonists

C[C@H](O)[C@H]1CCC2C3CC=C4C=CCC[C@]4(C)C3CC[C@@]21C (stereo partly drawn) [APR-11, pregn-3,5-dien-20-ol]
hPRB agonist/antagonist character (in words) [1, 3]: full antagonists | melting point: 103 to 104 °C

CC(=O)[C@H]1CC[C@H]2[C@@H]3CC=C4C=CCC[C@]4(C)[C@H]3CC[C@]12C [APR-12, Pregn-3,5-dien-20-one]
hPRB agonist/antagonist character (in words) [1, 3]: partial antagonist | melting point: 135 to 136 °C

CC(=O)O[C@@H](C)[C@H]1CC[C@H]2[C@@H]3CC[C@H]4CCCC[C@]4(C)[C@H]3CC[C@]12C [APR-13, 20-Acetoxy-5α-pregnane]
hPRB agonist/antagonist character (in words) [1, 3]: full antagonists

C[C@]12CCCC[C@@H]1CC[C@@H]1[C@@H]2CC[C@]2(C)[C@@H](O)CC[C@@H]12 [APR-14, 5α-Androstan-17β-ol]
hPRB agonist/antagonist character (in words) [1, 3]: full antagonists

CC(=O)[C@H]1CC[C@H]2[C@@H]3CC=C4C[C@@H](O)CC[C@]4(C)[C@H]3CC[C@]12C [APR-15, 3β-Hydroxypregn-5-en-20-one]
hPRB agonist/antagonist character (in words) [1, 2]: able to activate hPRB, but their agonist efficacies are low

CC(=O)[C@H]1CC[C@H]2[C@@H]3CC[C@H]4C[C@@H](O)CC[C@]4(C)[C@H]3CC[C@]12C [APR-20, 3β-Hydroxy-5α-pregnan-20-one]
hPRB agonist/antagonist character (in words) [1, 2]: able to activate hPRB, but their agonist efficacies are low

C#CC(C)(O)[C@H]1CC[C@H]2[C@@H]3CC=C4C[C@@H](F)CC[C@]4(C)[C@H]3CC[C@]12C (stereo partly drawn) [APR-21, 20-Ethynyl-3β-fluoropregn-5-en-20-ol]
melting point: 213 to 214 °C

CO[C@H]1CC[C@@]2(C)[C@@H](CC[C@@H]3[C@@H]2CC[C@]2(C)[C@@H](C(C)=O)CC[C@@H]32)C1 [APR-22, 3β-Methoxy-5α-pregnan-20-one]
hPRB agonist/antagonist character (in words) [1, 2]: antagonist character without any agonist activity; also recorded: most potent molecules | melting point: 125 to 126 °C

C[C@]12CCCC[C@@H]1CC[C@@H]1[C@@H]2CC[C@]2(C)C(=O)CC[C@@H]12 [APR-23, 5α-Androstan-17-one]
hPRB agonist/antagonist character (in words) [1, 3]: full antagonists | melting point: 120 to 121 °C

C[C@H](O)[C@H]1CC[C@H]2[C@@H]3CC=C4C[C@@H](F)CC[C@]4(C)[C@H]3CC[C@]12C [APR-24, 3β-Fluoropregn-5-en-20-ol]
hPRB agonist/antagonist character (in words) [1, 2]: efficient hPRB antagonists

C#CC(C)(O)[C@H]1CC[C@H]2[C@@H]3CC[C@H]4C[C@@H](F)CC[C@]4(C)[C@H]3CC[C@]12C (stereo partly drawn) [APR-26, 20-Ethynyl-3β-fluoro-5α-pregnan-20-ol]
melting point: 230 to 231 °C

C#CC(C)(O)[C@H]1CC[C@H]2[C@@H]3CC[C@H]4C[C@@H](OC)CC[C@]4(C)[C@H]3CC[C@]12C (stereo partly drawn) [APR-30, 20-Ethynyl-3β-methoxy-5α-pregnan-20-ol]
melting point: 168 to 169 °C

C[C@]12CC[C@H]3[C@@H](CC=C4C[C@@H](F)CC[C@@]43C)[C@@H]1CC[C@@H]2O [APR-41, 3β-Fluoro-androst-5-en-17β-ol]
melting point: 165 to 166 °C

C[C@]12CCC3C(CC=C4C[C@@H](O)CC[C@@H]43)C1CC[C@@H]2O (stereo partly drawn) [APR-48, 19-nor-Androst-5-en-3β,17β-diol]
hPRB agonist/antagonist character (in words) [1, 2]: Except for APR48, the molecules of this series behave as antagonists

C[C@]12CCC3C(CC[C@H]4CCCC[C@H]34)C1CC[C@@H]2O (stereo partly drawn) [APR-52, 19-nor-5-Androstan-17β-ol]
hPRB agonist/antagonist character (in words) [1, 3]: full antagonists

C#C[C@]1(O)CCC2C3CC[C@H]4CCCC[C@@H]4C3CC[C@@]21C (stereo partly drawn) [APR-56, 17α-Ethynyl-19-nor-5-androstan-17β-ol]
hPRB agonist/antagonist character (in words) [1, 3]: full antagonists
